Laboratory results reported in patent US20220193072A1, “METHODS OF TREATING BREAST CANCER WITH TETRAHYDRONAPHTHALENE DERIVATIVES AS ESTROGEN RECEPTOR DEGRADER” (Arvinas Operations, Inc., priority 2020, published 2022).
“And” between values parts separate entries of the source, which are not always exact repeats. Equal values may be shown once. Read-outs that look alike come from different tables or passages of the source.

Experiments:
[1] = Preclinical pharmacokinetics, oral once daily; conditions: in vivo, total drug concentrations; for AUC(0-t): read-out: Mean AUC0-24
Text: The pharmacokinetic results are shown below in Table 1.

MCF7 cells [2] = assay: Live-cell imaging growth studies and EC50 for growth inhibition, MCF7; type: cell-based; conditions: Homo sapiens, read-out: Approximate Half-maximal Effective Concentration (EC50) for growth inhibition
Experimental: MCF7, T47D, T47D ESR1 Y537S or T47D ESR1 D538G cells were seeded at 2×10^5 density per well in 6-well tissue culture-treated plates in DMEM/F12/10% FBS (2 mL total volume). […] The plate was then placed in the Incucyte® S3 Live-Cell Analysis System and images were acquired every 4 hours for a total of 5 days (120 hours). Data were analyzed using the Incucyte® Software v2020C which quantified cell surface area coverage as confluence values. Relative growth was calculated for all timepoints for all growth conditions relative to the confluence value observed for the control at 120 hours. Graphing and statistical analyses were performed using Graphpad Prism (GraphPad Software).

ERα = molecular target: T1, ERα (Homo sapiens, UniProt P03372); assay: In vivo ERα degradation in MCF7 xenograft tumors (immunoblot); set-up: species or system NOD/SCID mice; conditions: for % ERα ↓: MCF7/estradiol model
T1 construct: robustly degrades ER in ER-positive breast cancer cell lines; endogenous in cells; host or cells: MCF7, T47D (cell culture); MCF7 and tamoxifen-resistant MCF7 xenograft tumours in mice
T1 sequence (P03372 1-595): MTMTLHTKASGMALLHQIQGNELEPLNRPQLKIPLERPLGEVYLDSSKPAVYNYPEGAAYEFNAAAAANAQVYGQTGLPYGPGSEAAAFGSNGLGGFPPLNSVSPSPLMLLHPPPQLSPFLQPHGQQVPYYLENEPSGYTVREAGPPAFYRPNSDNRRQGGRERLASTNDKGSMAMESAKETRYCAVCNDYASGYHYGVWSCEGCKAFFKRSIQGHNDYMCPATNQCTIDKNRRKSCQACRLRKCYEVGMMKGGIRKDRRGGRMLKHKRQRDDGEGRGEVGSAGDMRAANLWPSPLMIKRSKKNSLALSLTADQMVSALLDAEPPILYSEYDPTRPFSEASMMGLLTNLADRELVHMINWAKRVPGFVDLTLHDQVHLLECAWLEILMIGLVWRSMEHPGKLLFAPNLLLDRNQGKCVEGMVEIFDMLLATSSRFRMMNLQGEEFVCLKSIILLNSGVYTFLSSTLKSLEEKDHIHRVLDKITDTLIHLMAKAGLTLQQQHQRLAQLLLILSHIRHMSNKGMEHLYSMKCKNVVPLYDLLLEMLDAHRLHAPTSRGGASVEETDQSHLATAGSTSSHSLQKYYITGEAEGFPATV
Experimental: Approximately 18 hours after the final administration, mice were sacrificed, and MCF7 xenografts were harvested and lysed to determine ER levels by immunoblotting. […] Diet was supplemented with peanut butter to help maintain body weights.
Species: NOD/SCID female mice (Charles River, 6-7 weeks old upon arrival).
Animal handling: Axial mammary fat pad implantation of 5×10^6 MCF7 cells/200 per mouse (17β-estradiol 0.36 mg 90-day pellet implanted day before).
Dosing: Oral (gavage), once a day (QD) for 3 days (QD×3). Vehicle: 2% Tween80/PEG400 (‘PEG/Tween’).
Sampling: Terminal sacrifice was ˜18 hrs after last dose; tumors were harvested, divided and flash frozen. ERα levels were determined by immunoblotting.
Cell Lysis: flash frozen tumors were removed from −80° C. storage and placed on dry ice. RIPA lysis buffer and Halt protease inhibitors were used at 400 μl per tumor sample. A steel ball (5 mm) was placed in each sample for tissue disruption. Samples were lysed with TissueLyzer at 24 Hz for 4 minutes. The homogenization was stopped half way through the process and the block flipped over for the duration of the process. Steel beads were pulled out of the tubes and the lysates were spun down at 21,000×g for 15 minutes at 4° C. Lysates were then measured for total protein concentration by BCA (per manufacturer's protocol).
Detection of proteins by immunoblot: lysates were mixed with sample buffer and reducing agent (per manufacturer's protocol). Samples were denatured at 95° C. for 5 minutes in thermal cycler. Samples were cooled and spun down (5000×g; 1 minute) prior to loading on gel. Gels were loaded with 10 μg total protein per lane. Samples were loaded on 4-15% Criterion Tris/Glycine gels and run for 25 minutes at 250 constant volts in 1×Tris/Glycine/SDS buffer. Protein was transferred from gels to nitrocellulose with Bio-Rad Turbo on default setting. All blots were rinsed with distilled water and blocked for 1 hour at RT in 5% BSA in TBS-T (TBS with 0.1% Tween) on rocker. The blots were cut so that beta-actin and ERα can be detected from the same lane/sample.
Blots were incubated with primary antibody in 5% BSA in TBST (0.1%) overnight at 4° C. on rocker:
Blot was washed with TBST (0.1%) three times for 5 minutes on rocker at RT. Secondary antibody was added, and blots incubated at RT on rocker for 1 hour (1:18,000 anti-rabbit-HRP in TBS-T). Blots were washed 3 times in TBST (0.1%) for 5 minutes at RT on the rocker. Signal was developed with Pierce WestFemto maximum sensitivity substrate for 5 minutes and blots imaged on BioRad ChemiDoc.
Sampling: Tumors were measured twice weekly. Terminal sacrifice was ˜18 hr after last dose; tumors were harvested, divided, and flash frozen. ERα levels were determined by immunoblotting.
At study termination, the tumors were removed from the mice, and ERα levels were determined by immunoblotting the tumor homogenates.
Sampling: tumors were measured twice weekly. Terminal sacrifice was ˜18 hr after last dose; tumors were harvested, divided, and flash frozen. ERα levels were determined by immunoblotting.

[3] = test system: cell lines expressing ESR1 variants Y537S and D538G; assay: Growth of cell lines expressing ESR1 variants; type: cell-based
MCF7 cells [4] = assay: Luminescence-based MCF7 cell proliferation assay, dose-response matrix; conditions: 5 days (120 hours)
Experimental: MCF7 cells were seeded at a density of 2×10^4 cells in 200 μL of media per well in 2 technical replicate, 96-well black, clear-bottom plates and incubated overnight at 37° C. in a 5% CO2 incubator. […] DMSO was used as the vehicle control. The plates were then incubated for 5 days at 37° C. in a 5% CO2 incubator.
The plates were equilibrated to room temperature for approximately 30 minutes. 50 μL of Cell-Titer Glo (Promega) was added to all wells of the plates, covered with aluminum foil and shaken gently by hand for less than 1 minute. The plates were then incubated for 10 minutes at room temperature. Luminescence was recorded using Envision Multi Label Reader. To assess cell viability, luminescence values for drug-treated wells were normalized to average luminescence of vehicle (DMSO) wells to obtain percent viability relative to control cells. The data were analyzed with the Combenefit software.

For O=C1CC[C@H](N2Cc3cc(N4CCN(CC5CCN(c6ccc([C@@H]7c8ccc(O)cc8CC[C@@H]7c7ccccc7)cc6)CC5)CC4)ccc3C2=O)C(=O)N1 [Compound (I-c), (3S)-3-[5-[4-[[1-[4-[(1R,2S)-6-hydroxy-2-phenyl-tetralin-1-yl]phenyl]-4-piperidyl]methyl]piperazin-1-yl]-1-oxo-isoindolin-2-yl]piperidine-2,6-dione], the Cmax ([1]; 3 mg/kg oral once daily) was 84 ng/mL, the AUC(0-t) ([1]; 3 mg/kg oral once daily) was 658 ng·h/mL and the Cmax ([1]; 10 mg/kg oral once daily) was 312 ng/mL. The AUC(0-t) ([1]; 10 mg/kg oral once daily) was 2540 ng·h/mL, the Cmax ([1]; 30 mg/kg oral, single dose) was 962 ng/mL and the AUC(0-t) ([1]; 30 mg/kg oral, single dose) was 5720 ng·h/mL. The EC50 (MCF7 cells [2]) was 10 nM, the “reduction of tumor ERα levels vs vehicle” value (ERα; 10 mg/kg p.o. once daily x 3 days, ~18 h after last dose) was “up to 95%” and the “reduction of tumor ERα levels vs vehicle” value (ERα; 3, 10 and 30 mg/kg daily oral, 28 days (all doses), at study termination) was > 94% and > 90%. The “% ERα ↓” value (ERα; 3 mg/kg) was 95%, the “% ERα ↓” value (ERα; 10 mg/kg) was 97% and the “% ERα ↓” value (ERα; 30 mg/kg) was 94%. For the same compound, the “growth of cell lines expressing ESR1 variants Y537S and D538G” value [3] was “inhibits growth” and the “MCF7 cell proliferation, single agent” value (MCF7 cells [4]) was “dose-dependent decrease”.
